Measured values: the supplement of paper PMC11061612

Legend:
Assay in all cases: Bliss excess, mean over the matrix (fraction); higher = more synergy
[1] = system: SNU-387 (Hepatocellular Carcinoma)
In short: (§1)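 After 24 hours at 37°C and 5% CO2 in 1536-well plates, cells in DMEM/F12 or RPMI plus 10% FBS received two-drug dose matrices for 72 hours. Viability came from CellTiter-Glo 2.0 luminescence and was scaled as inhibition, anchored at 0 by vehicle wells and at 1 by blank wells. Combination Emax is taken as the second-highest inhibition in the matrix, and Bliss excess as the observed combination effect less EA + EB − EA·EB, with EA and EB the single-agent effects.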

[2] = system: Ca-Ski (Cervical Carcinoma)
In short: as §1

[3] = system: HAL-01 (B-Lymphoblastic Leukemia)
In short: as §1

[4] = system: ME-180 (Cervical Carcinoma)
In short: as §1

[5] = system: SKN (Other Solid Carcinomas)
In short: as §1

[6] = system: MDA-MB-453 (Breast Carcinoma)
In short: as §1

[7] = system: MV-4-11 (Acute Myeloid Leukemia)
In short: as §1

[8] = system: COLO-668 (Small Cell Lung Carcinoma)
In short: as §1

[9] = system: SW982 (Other Solid Carcinomas)
In short: as §1

[10] = system: DU-145 (Prostate Carcinoma)
In short: as §1

[11] = system: ML-2 (Acute Myeloid Leukemia)
In short: as §1

[12] = system: MOLT-4 (T-Lymphoblastic Leukemia)
In short: as §1

[13] = system: KMRC-1 (Kidney Carcinoma)
In short: as §1

[14] = system: OE33 (Esophageal Adenocarcinoma)
In short: as §1

[15] = system: KGN (Other Solid Carcinomas)
In short: as §1

SK-N-AS (Neuroblastoma) = system: SK-N-AS (Neuroblastoma)
In short: as §1

[16] = system: MOG-G-UVW (Low Grade Glioma)
In short: as §1

[17] = system: NCI-H522 (Lung Adenocarcinoma)
In short: as §1

COLO-679 (Melanoma) = system: COLO-679 (Melanoma)
In short: as §1

[18] = system: A4-Fuk (B-Lymphoblastic Leukemia)
In short: as §1

SMILES | Bliss excess [1] | Bliss excess [2] | Bliss excess [3] | Bliss excess [4] | Bliss excess [5] | Bliss excess [6] | Bliss excess [7] | Bliss excess [8] | Bliss excess [9] | Bliss excess [10] | Bliss excess [11] | Bliss excess [12] | Bliss excess [13] | Bliss excess [14] | Bliss excess [15] | Bliss excess (SK-N-AS (Neuroblastoma)) | Bliss excess [16] | Bliss excess [17] | Bliss excess (COLO-679 (Melanoma)) | Bliss excess [18]
CN(CCO)CC[C@H](CSc1ccccc1)Nc1ccc(S(=O)(=O)NC(=O)c2ccc(N3CCC([C@@H](O)c4ccccc4-c4ccc(Cl)cc4)CC3)cc2)cc1S(=O)(=O)C(F)(F)F [AZD4320] + Cc1cc2ncnn2cc1Nc1ncc2c(n1)n(C1CCOCC1)c(=O)n2C [AZD7648] (first compound max 1 µM, 7x7, partner max 10 µM) | -0.041 | -0.0243 | 0.0071 | -0.007 | -0.0249 | -0.0409 | -0.0133 | -0.0431 | 0.0065 | -0.0355 | -0.0141 | 0.0422 | -0.0618 | -0.0489 | -0.103 | -0.0399 | -0.0412 | -0.0351 | -0.0351 | -0.0211
CN(CCO)CC[C@H](CSc1ccccc1)Nc1ccc(S(=O)(=O)NC(=O)c2ccc(N3CCC([C@@H](O)c4ccccc4-c4ccc(Cl)cc4)CC3)cc2)cc1S(=O)(=O)C(F)(F)F [AZD4320] + Nc1ccn([C@@H]2O[C@H](CO)[C@@H](O)C2(F)F)c(=O)n1 [Gemcitabine] (first compound max 1 µM, 7x7, partner max 0.3 µM) | -0.0646 | 0.0469 | 0.0448 | -0.0249 | 0.0198 | 0.0093 | -0.023 | 0.0417 | 0.0339 | -0.033 | 0.0042 | -0.0209 | 0.0287 | -0.0527 | -0.0204 | 0.0011 | -0.0147 | -0.0645 | -0.0226 | -0.0912
N#Cc1cnc(Nc2cc(NC[C@H]3CNCCO3)c(C(F)(F)F)cn2)cn1 [SRA737] + C=CCn1c(=O)c2cnc(Nc3ccc(N4CCN(C)CC4)cc3)nc2n1-c1cccc(C(C)(C)O)n1 [AZD1775] (first compound max 10 µM, partner max 1 µM) | 0.03 | 0.117 | 0.0645 | -0.0149 | -0.0293 | 0.0927 | 0.0409 | 0.151 | 0.0316 | -0.0105 | 0.0592 | 0.12 | -0.0048 | 0.0063 | 0.0807 | 0.0512 | 0.0652 | -0.0295 | -0.107 | 0.0277
C[C@@H](c1ccc2nccn2c1)n1nnc2ncc(-c3cnn(C)c3)nc21 [Savolitinib] + Cc1c2c(nn1C)CSCc1cc(n(C)n1)CSc1cc(c3ccccc3c1)OCCCc1c(C(=O)O)n(C)c3c-2c(Cl)ccc13 [AZD5991] (first compound max 1 µM, 7x7, partner max 1 µM) | -0.0858 | -0.0287 | 0.0173 | -0.0651 | -0.0279 | 0.0354 | -0.034 | -0.0417 | -0.0647 | -0.0361 | -0.0082 | 0.0706 | -0.0473 | -0.0152 | -0.0302 | -0.0749 | 0.0359 | -0.0353 | -0.0398 | 0.0027
CN(CCO)CC[C@H](CSc1ccccc1)Nc1ccc(S(=O)(=O)NC(=O)c2ccc(N3CCC([C@@H](O)c4ccccc4-c4ccc(Cl)cc4)CC3)cc2)cc1S(=O)(=O)C(F)(F)F [AZD4320] + C[C@@H](Nc1cc(F)cc(F)c1)c1cc(C(=O)N(C)C)cc2c(=O)cc(N3CCOCC3)oc12 [AZD8186] (first compound max 1 µM, 7x7, partner max 3 µM) | 0.0168 | 0.0605 | 0.0337 | -0.0137 | 0.0522 | 0.02 | 0.0114 | 0.0083 | 0.0078 | -0.0296 | 0.0182 | -0.0129 | -0.0007 | -0.0082 | 0.0014 | 0.0214 | -0.086 | -0.0481 | -0.0469 | 0.0025
Cc1cc2ncnn2cc1Nc1ncc2c(n1)n(C1CCOCC1)c(=O)n2C [AZD7648] + CN(C)CCCOc1ccc(-c2ccc3ncc4c(c3c2)n(C2CCOCC2)c(=O)n4C)cn1 [AZD0156] (first compound max 10 µM, 7x7, partner max 1 µM) | -0.0188 | 0.0424 | -0.0058 | -0.0167 | 0.0229 | 0.0257 | 0.0291 | -0.0252 | -0.0471 | -0.0142 | -0.0154 | 0.0068 | 0.0106 | 0.0005 | -0.0424 | -0.008 | 0.0206 | -0.0127 | -0.0259 | 0.0001
CN(CCO)CC[C@H](CSc1ccccc1)Nc1ccc(S(=O)(=O)NC(=O)c2ccc(N3CCC([C@@H](O)c4ccccc4-c4ccc(Cl)cc4)CC3)cc2)cc1S(=O)(=O)C(F)(F)F [AZD4320] + Cn1cnc2c(F)c(Nc3ccc(Br)cc3Cl)c(C(=O)NOCCO)cc21 [Selumetinib] (first compound max 1 µM, 7x7, partner max 3 µM) | 0.0149 | 0.0763 | -0.0053 | 0.0771 | -0.0209 | -0.0218 | 0.0513 | 0.114 | -0.0042 | 0.0057 | 0.0723 | 0.0365 | 0.0167 | 0.0249 | 0.0113 | -0.0204 | -0.0034 | -0.0181 | 0.0716 | 0.073
Cc1cc2ncnn2cc1Nc1ncc2c(n1)n(C1CCOCC1)c(=O)n2C [AZD7648] + C=CCn1c(=O)c2cnc(Nc3ccc(N4CCN(C)CC4)cc3)nc2n1-c1cccc(C(C)(C)O)n1 [AZD1775] (first compound max 10 µM, partner max 1 µM) | -0.123 | -0.0255 | 0.183 | -0.0378 | -0.0103 | -0.0223 | 0.053 | -0.0151 | -0.0111 | -0.0341 | -0.0199 | 0.0141 | 0.0051 | 0.0062 | -0.0266 | 0.0212 | -0.0301 | 0.0181 | -0.0446 | -0.0655
N#Cc1cnc(Nc2cc(NC[C@H]3CNCCO3)c(C(F)(F)F)cn2)cn1 [SRA737] + O=c1[nH]cc(F)c(=O)[nH]1 [5-Fluorouracil] (first compound max 10 µM, 7x7, partner max 20 µM) | 0.0472 | 0.0604 | -0.0463 | 0.0272 | -0.0266 | 0.108 | 0.004 | 0.0106 | 0.0157 | 0.0735 | -0.0476 | 0.013 | 0.0038 | 0.0184 | 0.002 | -0.0291 | 0.0006 | -0.0524 | -0.148 | 0.0129
Cc1cc2ncnn2cc1Nc1ncc2c(n1)n(C1CCOCC1)c(=O)n2C [AZD7648] + C[C@@H]1COCCN1C2=NC(=NC(=C2)C3(CC3)[S@](=N)(=O)C)C4=C5C=CNC5=NC=C4 [AZD6738] (first compound max 10 µM, 7x7, partner max 10 µM) | -0.0236 | 0.0404 | -0.0048 | -0.002 | 0.0038 | 0.0076 | -0.0469 | 0.0093 | -0.096 | -0.0068 | -0.0817 | 0.0427 | 0.0397 | -0.0187 | 0.0439 | 0.0381 | 0.0717 | 0.0231 | -0.0486 | -0.0768
Cc1cc2ncnn2cc1Nc1ncc2c(n1)n(C1CCOCC1)c(=O)n2C [AZD7648] + CCN(CCO)CCCOc1ccc2c(Nc3cc(CC(=O)Nc4cccc(F)c4)[nH]n3)ncnc2c1 [AZD2811] (first compound max 10 µM, 7x7, partner max 1 µM) | -0.0345 | 0.0387 | 0.0199 | -0.0485 | -0.033 | -0.0013 | -0.0538 | 0.0084 | -0.0569 | -0.0078 | -0.116 | 0.009 | 0.0039 | -0.0315 | -0.0649 | -0.0011 | -0.027 | 0.0156 | -0.0126 | 0.0759
CN(CCO)CC[C@H](CSc1ccccc1)Nc1ccc(S(=O)(=O)NC(=O)c2ccc(N3CCC([C@@H](O)c4ccccc4-c4ccc(Cl)cc4)CC3)cc2)cc1S(=O)(=O)C(F)(F)F [AZD4320] + CCN(CCO)CCCOc1ccc2c(Nc3cc(CC(=O)Nc4cccc(F)c4)[nH]n3)ncnc2c1 [AZD2811] (first compound max 1 µM, 7x7, partner max 1 µM) | -0.0127 | 0.119 | -0.0085 | 0.0343 | 0.0383 | 0.0154 | 0.0064 | 0.0302 | 0.0447 | -0.0341 | 0.0557 | 0.0322 | -0.0359 | -0.0398 | -0.0739 | -0.0041 | 0.03 | -0.0471 | 0.0201 | 0.0624
Cc1c2c(nn1C)CSCc1cc(n(C)n1)CSc1cc(c3ccccc3c1)OCCCc1c(C(=O)O)n(C)c3c-2c(Cl)ccc13 [AZD5991] + Cn1cnc2c(F)c(Nc3ccc(Br)cc3Cl)c(C(=O)NOCCO)cc21 [Selumetinib] (first compound max 1 µM, 7x7, partner max 3 µM) | 0.064 | 0.0502 | 0.062 | -0.0192 | -0.0276 | 0.0055 | 0.0172 | 0.106 | 0.0248 | 0.003 | 0.0659 | 0.0167 | -0.0396 |  | -0.0338 | -0.0277 | -0.0869 | -0.0194 | -0.0191 | 
N#Cc1cnc(Nc2cc(NC[C@H]3CNCCO3)c(C(F)(F)F)cn2)cn1 [SRA737] + Nc1ccn([C@@H]2O[C@H](CO)[C@@H](O)C2(F)F)c(=O)n1 [Gemcitabine] (first compound max 10 µM, 7x7, partner max 0.3 µM) | 0.102 | 0.0666 | 0.0046 |  | -0.0073 | -0.0075 | -0.0314 | -0.0355 | 0.0238 | 0.0276 | 0.061 | 0.0522 | 0.042 | 0.0039 | 0.0342 | -0.0283 | 0.0876 | 0.102 | -0.0808 | 0.0278
